Source: EP1469074B1, “Human calcium channel compositions and methods” (priority 1991, dated 1993)

Columns and labels:
[1] = system: human neuronal calcium channel α1D (SEQ ID No. 1), α2 (SEQ ID No. 11) and β1 (SEQ ID No. 9) subunits, expressed in HEK 293 cells; assay: Whole-cell patch clamp of barium currents in transiently transfected HEK 293 cells; type: cell-based; conditions: 1 µM Bay K 8644
Description: Pflugers Arch. 391:85-100].
Two days after transient transfection of HEK 293 cells with α1, α2 and β1 subunit-encoding cDNA and the lacZ gene, individual transfectants were assayed for voltage-dependent barium currents. The currents in nine transfectants were recorded.

[2] = system: human neuronal calcium channel α2 and β1 subunits, expressed in Xenopus laevis oöcytes; assay: Two-electrode voltage clamp of barium currents in Xenopus laevis oöcytes injected with α2 and β1 transcripts (no α1D; comparison); type: cell-based; conditions: Bay K 8644; n=11
[3] = system: human neuronal calcium channel α1D (SEQ ID No. 1), α2 (SEQ ID No. 11) and β1 (SEQ ID No. 9) subunits, stably expressed in HEK 293 cells; assay: Whole-cell patch clamp of barium currents in stably transfected HEK 293 cells; conditions: Bay K 8644 1 µM
[4] = system: human neuronal calcium channel α1D and α2 subunits, expressed in Xenopus laevis oöcytes; assay: Two-electrode voltage clamp of barium currents in Xenopus laevis oöcytes injected with α1D and α2 transcripts; type: cell-based; conditions: Bay K 8644; very small currents (15-30 nA); holding potential -90 mV
Text: Plasmids pVDCC III.RBS(A), containing of pcDNA1 and the α1D cDNA that begins with a ribosome binding site and the eighth ATG codon of the coding sequence (see Example III.A.3.d), plasmid pHBCaCHα1A containing of pcDNA1 and an α2 subunit cDNA (see Example IV), and plasmid pHBCaCHβ1bRBS (A) containing pcDNA1 and the β1 DNA lacking intron sequence and containing a ribosome binding site (see Example III), were linearized by restriction digestion. The α1D cDNA- and α2 subunit-encoding plasmids were digested with XhoI, and the β1 subunit-encoding plasmid was digested with EcoRV. The DNA insert was transcribed with T7 RNA polymerase.

SMILES: COC(=O)C1=C(C)NC(C)=C([N+](=O)[O-])C1c1ccccc1C(F)(F)F (stereo not drawn) [Bay K 8644]
- effect on inward barium current ([1]; holding potential -90 mV, 15 mM Ba2+ bath, one transfectant): significantly enhanced in magnitude
- largest inward barium current in the presence of the compound ([1]; membrane depolarized to 0 mV from holding potential -90 mV): -160 pA
- sensitivity of inward barium currents to the compound [2]: insensitive
- barium current during application of the compound ([3]; depolarized to -10 mV from holding potential -90 mV, approximately 35pA in its absence): approximately 75 pA
- shift of the current-voltage relation ([3]; same cell, series of depolarizing voltages): about -10 mV
- response of barium currents to the compound [4]: little or no response
